According to US20250282734A1 (Bayer Aktiengesellschaft, priority 2021, published 2025):
Like-named read-outs stand apart in the source and are kept apart here. Marks after values point to notes of the source that are not given here.

Assays:
[1] = Determination of exposure in rat after intragastric administration (Example 13); format: in vivo; settings: for AUC(0-t): female, plasma, po, read-out: AUC(0-tlast); for AUC(0-t) / AUC(0-tlast)norm: free acid in rat plasma
Protocol: Determination of exposure after intragastric application of test compounds was performed in female conscious rats with a body weight of 0.2 kg (minimum) to 0.25 kg (maximum). The test compounds were applied as bolus via intragastric probe to unfed female rats in solution or suspension in the vehicle ethanol/solutol/water (v/v/v 10/40/50).
At the indicated timepoints between 8 min and 24 h after dosing, 150 μl blood were sampled via a catheter from the vena jugularis. The samples were treated with K-EDTA as anticoagulant and stored cooled until further processing (refrigerator, 4° C.). The samples were centrifuged (15 min, 3000 rpm), then an aliquot of 100 μL was taken from the supernatant (plasma), precipitated by addition of 400 μL cold acetonitrile or methanol (abs.) and frozen at −20° C. over night. The samples were centrifuged (15 min, 3000 rpm), then 150 μL of the clear supernatant were taken for analytical testing. Analytics were performed using an Agilent 1200 HPLC-system with LCMS/MS detection.
The applied dose of cholinate according to the invention was adjusted as compared to free acid according to the difference in molecular weight. The resulting equivalent doses were used for comparison.

[2] = Hygroscopy, dynamic vapour sorption (DVS) isotherms (Example 15); format: physicochemical
Protocol: Water sorption isotherms were determined using a DVS Resolution gravimetric sorption analyzer (London, UK), or a DVS Intrinsic instrument (Surface measurement Systems). The sample was dried for 1000 minutes at 0% relative humidity (R.H.). Afterwards the dry weight was recorded. […] The equilibrium criterion for each relative humidity set point was 0.002% per minute relative mass change as a function of time.

[3] = Solubility free acid vs. salt, shake-flask method (Example 12); format: physicochemical
[4] = Dissolution profile, flow through cell in FeSSIF / FaSSIF (Example 16); format: physicochemical; settings: 14 minutes, micronized
Protocol: Prior to the measurements, the samples were micronized using a jet mill (MC DECJET 30) under nitrogen, with a pressure of 4.5 Bar for the injector and 4.0 Bar grinding pressure.
Dissolution rates of the drug substance were then determined using a flow through cell (FTC) from Sotax. All experiments were conducted in triplicates.
Then, the respective medium (FaSSIF or FeSSIF) was pumped through the cell with a pump rate of 2 mL/min for a total time of 14 minutes, resulting in a total volume of 28 mL. This volume was collected in time increments of 2 minutes, leading to 7 collected fractions with 4 mL each. The drug substance concentration of each fraction was determined by HPLC (external standard).

[5] = Solubility of cholinate vs free acid and other salts, shake-flask method (Example 14); format: physicochemical
Protocol: (§1) Preparation of FaSSIF (Fasted State Simulated Intestinal Fluid) blank solution: 4.2 g NaOH, 44.7 g NaH2PO4*2 H2O, and 61.86 g NaCl were dissolved in approximately 9.5 L demineralized water. Then, the pH of this solution was adjusted to 6.50+/−0.05 using HCl or NaOH, respectively. In the last step, the final volume was adjusted to 10.0 L by the addition of demineralized water.
Preparation of the final FaSSIF solution: 4.48 g SIF (Simulated Intestinal Fluids) powder (provider: biorelevant.com, Product code: FFF01 (May 2022)) were dissolved in approximately 500 mL FaSSIF blank solution, then the final volume was adjusted to 2.0 L by the addition of FaSSIF blank solution. After 2 hours, the solution was considered to be ready to use and was used within 48 hours.
as §1, with “FeSSIF (Fed” for “FaSSIF (Fasted”, “40.4” for “4.2”, “118.74” for “44.7”, “NaCl,” for “NaH2PO4*2 H2O,”, “82.4 mL glacial acetic acid” for “61.86 g NaCl”, “5.00+/−0.05” for “6.50+/−0.05”
Preparation of the final FeSSIF solution: 22.4 g SIF powder (provider: biorelevant.com, Product code: FFF01 (May 2022)) were dissolved in approximately 500 mL FeSSIF blank solution, then the final volume was adjusted to 2.0 L by the addition of FeSSIF blank solution. The solution was considered to be ready to use immediately after manufacturing and was used within 48 hours.

## O=C(O)c1cc(NC(=O)C2(c3ccc(C(F)(F)F)cc3F)CC2)ccc1-c1cnn(C2CCC2)c1 [free acid, 2-(1-cyclobutyl-1H-pyrazol-4-yl)-5-[({1-[2-fluoro-4-(trifluoromethyl)-phenyl]cyclopropyl}carbonyl)amino]benzoic acid]
[1]; rat, 3 mg/kg, dose equiv. 3 mg/kg
  AUC(0-t): 24 µg·h/mL
[1]; rat, 30 mg/kg, dose equiv. 30 mg/kg
  AUC(0-t): 149 µg·h/mL
[1]; rat, 100 mg/kg, dose equiv. 100 mg/kg
  AUC(0-t): 247 µg·h/mL
[1]; rat, 150 mg/kg, dose equiv. 150 mg/kg
  AUC(0-t): 225 µg·h/mL
[1]; dose equiv. 3 mg/kg
  AUC(0-tlast)norm: 8.1 kg·h/L
[1]; dose equiv. 30 mg/kg
  AUC(0-tlast)norm: 5 kg·h/L
[1]; dose equiv. 100 mg/kg
  AUC(0-tlast)norm: 2.5 kg·h/L
[1]; dose equiv. 150 mg/kg
  AUC(0-tlast)norm: 1.5 kg·h/L
[1]; rat, doses above 30 mg/kg
  Increase of plasma exposure of free acid with dose: much less than dose-proportional increase of exposure
[2]; 0% Relative humidity
  Change in mass [%], Desorption: 0.65%
  Change in mass [%], Sorption: 0.06%
[2]; 10% Relative humidity
  Change in mass [%], Desorption: 0.52%
  Change in mass [%], Sorption: 0.08%
[2]; 20% Relative humidity
  Change in mass [%], Desorption: 0.42%
  Change in mass [%], Sorption: 0.10%
[2]; 30% Relative humidity
  Change in mass [%], Desorption: 0.35%
  Change in mass [%], Sorption: 0.12%
[2]; 40% Relative humidity
  Change in mass [%], Desorption: 0.29%
  Change in mass [%], Sorption: 0.14%
[2]; 50% Relative humidity
  Change in mass [%], Desorption: 0.16%
  Change in mass [%], Sorption: 0.17%
[2]; 60% Relative humidity
  Change in mass [%], Desorption: 0.09%
  Change in mass [%], Sorption: 0.20%
[2]; 70% Relative humidity
  Change in mass [%], Desorption: 0.05%
  Change in mass [%], Sorption: 0.23%
[2]; 80% Relative humidity
  Change in mass [%], Desorption: 0.03%
  Change in mass [%], Sorption: 0.29%
[2]; 90% Relative humidity
  Change in mass [%], Desorption: 0.01%
  Change in mass [%], Sorption: 0.44%
[2]; 95% Relative humidity
  Change in mass [%], Desorption: 0.00%
  Change in mass [%], Sorption: 0.65%
[3]; Acetone, 25° C.
  solubility: 10100 mg/L
[3]; Acetonitrile, 25° C.
  solubility: 1290 mg/L
[3]; Ethanol, 25° C.
  solubility: 4260 mg/L
[3]; PEG 400, 25° C.
  solubility: 6830 mg/L
[3]; Phosphate buffer pH 7, 25° C.
  solubility: 87 mg/L
[3]; Solutol/Ethanol/Water (40/10/50 V/V/V), 25° C.
  solubility: 1300 mg/L
[3]; Water, 25° C., stirred overnight
  solubility: <1* mg/L
[3]; solubility test in water, pH of water before stirring: 5.57
  pH of the clear solution: *pH of the clear solution: 4.6
[4]; FaSSIF
  Dissolution in FaSSIF, comparison in words: dissolved slower
[4]; FeSSIF
  Dissolution in FeSSIF, comparison in words: significantly slower

## O=C([O-])c1cc(NC(=O)C2(c3ccc(C(F)(F)F)cc3F)CC2)ccc1-c1cnn(C2CCC2)c1.[K+] [Potassium salt, Potassium 2-(1-cyclobutyl-1H-pyrazol-4-yl)-5-[({1-[2-fluoro-4-(trifluoromethyl)phenyl]cyclopropyl}carbonyl)amino]benzoate]
[2]; 0% Relative humidity
  Change in mass [%], Desorption: 67.05%
  Change in mass [%], Sorption: 1.84%
[2]; 10% Relative humidity
  Change in mass [%], Desorption: 36.40%
  Change in mass [%], Sorption: 3.33%
[2]; 20% Relative humidity
  Change in mass [%], Desorption: 21.86%
  Change in mass [%], Sorption: 4.12%
[2]; 30% Relative humidity
  Change in mass [%], Desorption: 15.18%
  Change in mass [%], Sorption: 5.53%
[2]; 40% Relative humidity
  Change in mass [%], Desorption: 11.85%
  Change in mass [%], Sorption: 8.59%
[2]; 50% Relative humidity
  Change in mass [%], Desorption: 9.24%
  Change in mass [%], Sorption: 11.39%
[2]; 60% Relative humidity
  Change in mass [%], Desorption: 6.66%
  Change in mass [%], Sorption: 14.10%
[2]; 70% Relative humidity
  Change in mass [%], Desorption: 4.31%
  Change in mass [%], Sorption: 17.79%
[2]; 80% Relative humidity
  Change in mass [%], Desorption: 2.92%
  Change in mass [%], Sorption: 24.21%
[2]; 90% Relative humidity
  Change in mass [%], Desorption: 1.40%
  Change in mass [%], Sorption: 37.54%
[2]; 95% Relative humidity
  Change in mass [%], Desorption: 0.00%
  Change in mass [%], Sorption: 67.05%
[2]; summarized results, 30% R.H.
  DVS Dm @ 30% R.H. (Sorption): 5.5%
[2]; summarized results, 50% R.H.
  DVS Dm @ 50% R.H. (Sorption): 11.4%
[2]; summarized results, 80% R.H.
  DVS Dm @ 80% R.H. (Sorption): 24.2%
[5]; Buffer pH 4.5, 25° C.
  solubility: 5 mgfree acid/L
[5]; Buffer pH 7, 25° C.
  solubility: 684 mgfree acid/L
[5]; Buffer pH 8, 25° C.
  solubility: >11594 mgfree acid/L
[5]; FaSSIF (37° C.) (Fasted State Simulated Intestinal Fluid)
  solubility: 781 mgfree acid/L
[5]; FeSSIF (37° C.) (Fed State Simulated Intestinal Fluid)
  solubility: 24 mgfree acid/L
[5]; Water, 25° C.
  solubility: 6425 mgfree acid/L
